Data taken from ChEMBL document CHEMBL1201862, “PubChem BioAssay data set” (2004).
Activity calls are given as the source filed them.

Experiments:
Trypsin = Trypsin (Sus scrofa, UniProt P00761); assay: porcine trypsin inhibitors, dose response, selectivity assay for Rce1 protease inhibitor project, biochemical, quenched peptide fluorescence, cherry-pick (AID 488789)
CAAX prenyl protease 2 = CAAX prenyl protease 2 (Homo sapiens, UniProt Q9Y256); assay: human Rce1 protease inhibitors, dose response, biochemical, yeast membranes, quenched-peptide fluorescence, cherry-pick (AID 588849)
CAAX prenyl protease 1 = CAAX prenyl protease 1 (Saccharomyces cerevisiae S288c, UniProt P47154); assay: Ste24 protease inhibitors, dose response, biochemical, S. cerevisiae, plate reader, cherry-pick (AID 488815)
ORF 73 = ORF 73 (Human herpesvirus 8, UniProt O40947); assay: inhibitors of C-LANA binding to LBS DNA, dose response, biochemical, fluorescence polarization, cherry-picked samples (AID 504725); set-up: species or system Human gammaherpesvirus 8;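 note: fluorescence polarization of a labeled DNA duplex reporting LANA DNA binding; potency is for inhibitors that block LANA binding to the DNA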
Sequence of ORF 73 (O40947 whole entry): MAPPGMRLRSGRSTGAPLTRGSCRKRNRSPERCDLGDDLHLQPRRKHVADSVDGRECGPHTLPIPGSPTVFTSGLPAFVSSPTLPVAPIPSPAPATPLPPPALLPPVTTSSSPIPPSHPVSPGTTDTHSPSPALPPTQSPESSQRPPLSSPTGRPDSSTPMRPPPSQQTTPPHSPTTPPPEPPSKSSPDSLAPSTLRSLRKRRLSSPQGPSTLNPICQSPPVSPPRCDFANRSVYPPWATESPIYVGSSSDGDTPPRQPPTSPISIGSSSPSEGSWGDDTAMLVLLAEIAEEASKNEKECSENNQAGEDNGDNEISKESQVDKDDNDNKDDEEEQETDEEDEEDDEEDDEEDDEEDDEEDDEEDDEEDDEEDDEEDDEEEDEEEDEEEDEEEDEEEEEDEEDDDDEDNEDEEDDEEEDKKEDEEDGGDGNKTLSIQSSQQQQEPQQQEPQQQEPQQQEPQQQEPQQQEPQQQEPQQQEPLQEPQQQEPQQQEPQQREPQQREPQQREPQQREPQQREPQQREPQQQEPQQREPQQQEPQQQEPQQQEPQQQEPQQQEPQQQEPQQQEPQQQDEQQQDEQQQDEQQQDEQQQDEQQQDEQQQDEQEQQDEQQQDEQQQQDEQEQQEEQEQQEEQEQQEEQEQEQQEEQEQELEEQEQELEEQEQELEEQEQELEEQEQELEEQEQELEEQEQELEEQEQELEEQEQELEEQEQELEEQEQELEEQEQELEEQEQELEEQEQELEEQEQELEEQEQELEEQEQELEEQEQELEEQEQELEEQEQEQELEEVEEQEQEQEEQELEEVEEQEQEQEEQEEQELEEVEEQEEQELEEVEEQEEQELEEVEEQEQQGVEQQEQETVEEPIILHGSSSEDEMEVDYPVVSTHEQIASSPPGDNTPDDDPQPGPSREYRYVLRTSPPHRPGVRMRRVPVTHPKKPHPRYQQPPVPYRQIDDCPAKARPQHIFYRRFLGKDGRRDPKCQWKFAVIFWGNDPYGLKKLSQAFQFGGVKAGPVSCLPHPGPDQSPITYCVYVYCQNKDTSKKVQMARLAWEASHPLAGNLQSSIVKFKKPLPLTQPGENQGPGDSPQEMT

SUMO-activating enzyme [1] = biological target: T1, SUMO-activating enzyme (Homo sapiens, UniProt Q9UBT2); assay: inhibitors of in vitro SUMOylation cascade, primary screen, biochemical, HTRF, uHTS (AID 2006); type: protein-complex assay
[2] = biological target: Transitional endoplasmic reticulum ATPase (Homo sapiens, UniProt P55072, C522A); assay: C522A mutant p97 ATPase inhibitors, dose response, counter-screen for p97 inhibitor project, biochemical, luminescence (AID 1544)
[3] = biological target: T2, Histone-lysine N-methyltransferase NSD2 (Homo sapiens, UniProt O96028); type: biochemical
T2 sequence (O96028 whole entry): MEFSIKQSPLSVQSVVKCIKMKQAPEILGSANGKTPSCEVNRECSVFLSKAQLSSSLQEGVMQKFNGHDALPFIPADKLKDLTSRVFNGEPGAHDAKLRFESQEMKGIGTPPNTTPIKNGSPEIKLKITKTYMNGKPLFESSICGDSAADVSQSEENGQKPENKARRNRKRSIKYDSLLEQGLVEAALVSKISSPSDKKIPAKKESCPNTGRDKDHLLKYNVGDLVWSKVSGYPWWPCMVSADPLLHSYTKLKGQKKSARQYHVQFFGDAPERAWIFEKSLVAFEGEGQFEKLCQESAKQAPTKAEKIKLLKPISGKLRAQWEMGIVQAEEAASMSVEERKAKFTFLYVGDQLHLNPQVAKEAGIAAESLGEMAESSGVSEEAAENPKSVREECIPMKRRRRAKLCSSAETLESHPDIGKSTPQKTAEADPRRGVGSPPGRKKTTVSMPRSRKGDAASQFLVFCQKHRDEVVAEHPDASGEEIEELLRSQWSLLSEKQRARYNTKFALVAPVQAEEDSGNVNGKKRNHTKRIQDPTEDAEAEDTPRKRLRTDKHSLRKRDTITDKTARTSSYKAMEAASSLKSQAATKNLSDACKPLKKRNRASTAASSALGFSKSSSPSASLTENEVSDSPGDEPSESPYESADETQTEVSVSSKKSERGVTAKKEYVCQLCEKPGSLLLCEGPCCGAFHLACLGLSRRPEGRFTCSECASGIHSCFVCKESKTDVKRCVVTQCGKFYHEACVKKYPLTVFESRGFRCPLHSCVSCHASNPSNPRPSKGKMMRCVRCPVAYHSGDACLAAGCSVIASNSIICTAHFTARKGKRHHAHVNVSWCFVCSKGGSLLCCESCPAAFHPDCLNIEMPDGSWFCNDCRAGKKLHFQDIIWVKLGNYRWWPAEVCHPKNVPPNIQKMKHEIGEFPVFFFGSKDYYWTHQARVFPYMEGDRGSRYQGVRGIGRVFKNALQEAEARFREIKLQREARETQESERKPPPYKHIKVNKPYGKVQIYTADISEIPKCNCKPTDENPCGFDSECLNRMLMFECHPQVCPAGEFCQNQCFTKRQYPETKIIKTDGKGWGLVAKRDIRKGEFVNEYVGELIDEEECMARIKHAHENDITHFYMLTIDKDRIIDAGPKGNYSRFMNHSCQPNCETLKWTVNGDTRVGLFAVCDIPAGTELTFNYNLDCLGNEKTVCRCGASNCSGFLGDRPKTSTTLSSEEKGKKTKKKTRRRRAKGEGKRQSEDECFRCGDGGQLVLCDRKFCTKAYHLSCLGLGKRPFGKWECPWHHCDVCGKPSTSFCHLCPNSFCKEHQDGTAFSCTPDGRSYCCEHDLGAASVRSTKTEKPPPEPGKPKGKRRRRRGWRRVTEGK

[4] = biological target: DNA (cytosine-5)-methyltransferase 1 (Homo sapiens, UniProt P26358); assay: DNMT1 methyltransferase inhibitors, confirmation, biochemical, fluorescent molecular beacon (AID 602386); type: functional
[5] = biological target: Transitional endoplasmic reticulum ATPase (Homo sapiens, UniProt P55072); assay: p97 ATPase inhibitors, dose response, biochemical (AID 1534)
[6] = biological target: T3, Voltage-gated N-type calcium channel alpha-1B subunit/Amyloid beta A4 precursor protein-binding family A member 1 (Homo sapiens, UniProt Q00975+Q02410); type: protein assay
T3 sequence (Q00975 whole entry): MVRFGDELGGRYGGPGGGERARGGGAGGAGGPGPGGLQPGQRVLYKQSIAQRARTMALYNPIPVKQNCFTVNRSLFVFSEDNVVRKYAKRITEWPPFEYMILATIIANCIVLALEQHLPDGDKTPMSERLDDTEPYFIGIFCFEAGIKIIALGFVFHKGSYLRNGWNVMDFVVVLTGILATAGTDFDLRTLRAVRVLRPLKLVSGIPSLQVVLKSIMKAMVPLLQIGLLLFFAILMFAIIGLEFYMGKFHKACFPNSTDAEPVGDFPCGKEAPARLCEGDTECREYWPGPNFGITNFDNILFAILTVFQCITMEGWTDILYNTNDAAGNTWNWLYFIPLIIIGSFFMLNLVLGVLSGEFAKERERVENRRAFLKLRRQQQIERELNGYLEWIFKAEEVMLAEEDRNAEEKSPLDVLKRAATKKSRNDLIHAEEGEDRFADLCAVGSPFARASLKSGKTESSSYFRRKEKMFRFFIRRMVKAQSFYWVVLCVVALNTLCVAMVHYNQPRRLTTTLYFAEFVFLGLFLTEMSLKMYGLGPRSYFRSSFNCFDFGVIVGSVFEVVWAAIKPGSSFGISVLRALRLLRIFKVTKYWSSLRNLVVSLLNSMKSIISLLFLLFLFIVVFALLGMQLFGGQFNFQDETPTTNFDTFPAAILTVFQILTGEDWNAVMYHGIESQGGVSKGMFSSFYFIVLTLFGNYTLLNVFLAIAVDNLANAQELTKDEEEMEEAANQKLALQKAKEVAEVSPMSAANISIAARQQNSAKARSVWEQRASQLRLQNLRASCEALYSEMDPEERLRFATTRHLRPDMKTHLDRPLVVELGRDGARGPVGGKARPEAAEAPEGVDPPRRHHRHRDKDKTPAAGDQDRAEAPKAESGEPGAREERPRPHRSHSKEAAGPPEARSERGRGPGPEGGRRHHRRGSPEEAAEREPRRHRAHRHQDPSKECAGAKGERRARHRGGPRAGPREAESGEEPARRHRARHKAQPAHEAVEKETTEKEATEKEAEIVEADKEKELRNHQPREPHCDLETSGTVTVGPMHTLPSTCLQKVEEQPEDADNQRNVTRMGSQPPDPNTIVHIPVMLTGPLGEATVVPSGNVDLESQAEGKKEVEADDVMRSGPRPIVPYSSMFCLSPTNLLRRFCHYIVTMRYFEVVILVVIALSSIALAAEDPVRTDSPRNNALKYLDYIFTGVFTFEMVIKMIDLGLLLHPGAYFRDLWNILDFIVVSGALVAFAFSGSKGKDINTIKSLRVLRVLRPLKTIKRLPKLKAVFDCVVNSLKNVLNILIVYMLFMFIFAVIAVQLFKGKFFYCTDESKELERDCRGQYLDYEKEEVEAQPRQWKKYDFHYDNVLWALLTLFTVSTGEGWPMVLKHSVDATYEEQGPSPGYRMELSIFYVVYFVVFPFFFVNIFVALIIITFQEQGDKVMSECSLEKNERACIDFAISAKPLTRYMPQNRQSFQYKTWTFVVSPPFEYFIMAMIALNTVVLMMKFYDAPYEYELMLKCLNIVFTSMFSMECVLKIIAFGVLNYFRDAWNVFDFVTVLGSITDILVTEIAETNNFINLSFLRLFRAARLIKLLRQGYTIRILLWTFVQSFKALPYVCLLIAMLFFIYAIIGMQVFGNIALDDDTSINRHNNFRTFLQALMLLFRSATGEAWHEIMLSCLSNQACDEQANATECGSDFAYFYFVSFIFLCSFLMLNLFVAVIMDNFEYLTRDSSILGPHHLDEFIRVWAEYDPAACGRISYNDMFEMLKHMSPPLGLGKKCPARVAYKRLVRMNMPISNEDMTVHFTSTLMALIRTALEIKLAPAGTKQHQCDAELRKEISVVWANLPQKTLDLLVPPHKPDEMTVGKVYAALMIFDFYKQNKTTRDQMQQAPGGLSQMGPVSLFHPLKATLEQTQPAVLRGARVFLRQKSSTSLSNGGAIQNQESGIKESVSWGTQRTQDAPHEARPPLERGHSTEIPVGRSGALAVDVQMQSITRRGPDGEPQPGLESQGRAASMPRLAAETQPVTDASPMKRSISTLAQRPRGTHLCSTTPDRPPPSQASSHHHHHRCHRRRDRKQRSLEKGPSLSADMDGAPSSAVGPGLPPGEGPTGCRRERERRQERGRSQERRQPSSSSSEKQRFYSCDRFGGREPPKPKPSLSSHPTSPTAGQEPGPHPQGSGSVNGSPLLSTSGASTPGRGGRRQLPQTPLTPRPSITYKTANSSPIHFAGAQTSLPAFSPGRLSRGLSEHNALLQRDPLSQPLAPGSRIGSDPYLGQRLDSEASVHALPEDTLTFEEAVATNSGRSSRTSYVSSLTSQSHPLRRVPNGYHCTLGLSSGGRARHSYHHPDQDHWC
T3 sequence (Q02410 whole entry): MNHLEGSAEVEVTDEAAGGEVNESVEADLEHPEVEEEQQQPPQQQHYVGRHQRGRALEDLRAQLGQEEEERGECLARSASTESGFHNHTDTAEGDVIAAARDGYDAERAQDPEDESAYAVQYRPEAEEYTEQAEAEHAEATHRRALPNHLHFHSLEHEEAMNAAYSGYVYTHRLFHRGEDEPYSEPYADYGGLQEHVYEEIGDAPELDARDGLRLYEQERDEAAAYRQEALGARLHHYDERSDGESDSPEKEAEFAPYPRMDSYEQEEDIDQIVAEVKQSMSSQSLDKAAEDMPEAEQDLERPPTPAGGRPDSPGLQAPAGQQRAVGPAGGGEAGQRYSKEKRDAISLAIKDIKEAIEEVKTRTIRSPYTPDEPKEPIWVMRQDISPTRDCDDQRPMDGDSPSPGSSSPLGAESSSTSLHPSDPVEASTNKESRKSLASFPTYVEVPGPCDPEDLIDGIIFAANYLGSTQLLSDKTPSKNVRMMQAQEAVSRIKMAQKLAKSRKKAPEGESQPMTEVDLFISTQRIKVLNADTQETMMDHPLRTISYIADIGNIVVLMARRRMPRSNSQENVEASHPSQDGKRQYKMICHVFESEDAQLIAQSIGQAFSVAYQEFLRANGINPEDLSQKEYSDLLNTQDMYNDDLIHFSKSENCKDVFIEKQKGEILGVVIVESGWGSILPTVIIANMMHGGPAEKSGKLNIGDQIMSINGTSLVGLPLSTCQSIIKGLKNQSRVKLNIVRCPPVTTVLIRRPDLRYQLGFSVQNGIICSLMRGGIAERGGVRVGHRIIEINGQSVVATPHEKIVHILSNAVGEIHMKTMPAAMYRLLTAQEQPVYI

SUMO-activating enzyme [7] = biological target: T1, SUMO-activating enzyme; assay: SUMOylation inhibitor hit validation, confirmation, SUMOylation inhibitor project, biochemical, AlphaScreen (AID 2018); type: functional
Caspase-6 = biological target: T4, Caspase-6 (Homo sapiens, UniProt P55212); assay: human caspase-6 inhibitors, dose response, biochemical, VEID-R110 fluorescence, cherry-pick (AID 720632)
T4 sequence (P55212 whole entry): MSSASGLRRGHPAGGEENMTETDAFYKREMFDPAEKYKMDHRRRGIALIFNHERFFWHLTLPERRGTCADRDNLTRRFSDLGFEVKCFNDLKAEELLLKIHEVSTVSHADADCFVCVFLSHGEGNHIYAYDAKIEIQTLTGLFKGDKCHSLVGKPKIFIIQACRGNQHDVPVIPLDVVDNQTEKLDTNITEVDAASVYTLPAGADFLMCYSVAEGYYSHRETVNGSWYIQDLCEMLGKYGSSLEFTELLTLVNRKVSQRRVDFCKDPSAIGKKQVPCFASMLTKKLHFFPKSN

Aminopeptidase N = biological target: T5, Aminopeptidase N (Plasmodium falciparum FcB1/Columbia, UniProt O96935); assay: P. falciparum M1AAP inhibitors, biochemical, fluorogenic H-Leu-NHMec substrate, 1536-well (AID 1445); set-up: species or system Plasmodium falciparum 3D7, 3D7
T5 sequence (O96935 whole entry): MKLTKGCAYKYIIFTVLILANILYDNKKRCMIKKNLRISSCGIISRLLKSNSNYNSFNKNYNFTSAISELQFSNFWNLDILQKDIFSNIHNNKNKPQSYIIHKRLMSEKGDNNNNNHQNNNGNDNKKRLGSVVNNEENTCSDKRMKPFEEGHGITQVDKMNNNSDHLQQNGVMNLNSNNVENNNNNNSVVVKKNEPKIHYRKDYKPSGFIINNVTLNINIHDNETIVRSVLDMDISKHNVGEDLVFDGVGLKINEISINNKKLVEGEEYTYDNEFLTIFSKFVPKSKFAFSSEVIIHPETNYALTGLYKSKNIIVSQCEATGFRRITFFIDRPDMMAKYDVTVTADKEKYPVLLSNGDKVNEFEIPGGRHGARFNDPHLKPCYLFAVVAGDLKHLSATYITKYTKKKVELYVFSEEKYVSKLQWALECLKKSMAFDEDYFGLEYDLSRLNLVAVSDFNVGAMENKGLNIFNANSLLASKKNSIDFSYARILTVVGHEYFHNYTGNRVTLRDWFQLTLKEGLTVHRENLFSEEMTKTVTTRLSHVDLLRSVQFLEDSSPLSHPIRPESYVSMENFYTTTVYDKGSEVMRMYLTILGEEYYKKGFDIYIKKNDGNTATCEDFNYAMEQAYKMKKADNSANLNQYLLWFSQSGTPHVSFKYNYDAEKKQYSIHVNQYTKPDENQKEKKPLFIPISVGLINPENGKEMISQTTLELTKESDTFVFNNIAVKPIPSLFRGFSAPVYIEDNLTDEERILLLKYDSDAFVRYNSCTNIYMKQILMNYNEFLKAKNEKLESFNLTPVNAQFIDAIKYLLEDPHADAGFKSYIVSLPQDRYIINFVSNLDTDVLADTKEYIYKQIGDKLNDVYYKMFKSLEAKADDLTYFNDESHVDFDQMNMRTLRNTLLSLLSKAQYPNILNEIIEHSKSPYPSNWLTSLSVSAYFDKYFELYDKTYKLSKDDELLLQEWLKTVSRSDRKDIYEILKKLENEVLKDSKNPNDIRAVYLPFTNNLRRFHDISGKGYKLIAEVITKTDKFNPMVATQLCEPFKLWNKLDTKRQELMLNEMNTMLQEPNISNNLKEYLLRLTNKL

[8] = biological target: Induced myeloid leukemia cell differentiation protein Mcl-1 (Homo sapiens, UniProt Q07820); type: functional
[9] = biological target: T3, Voltage-gated N-type calcium channel alpha-1B subunit/Amyloid beta A4 precursor protein-binding family A member 1; type: protein assay; remark: listed apart in the source
SUMO E1/E2 = SUMO E1/E2 (Homo sapiens, UniProt P63279+Q9UBE0+Q9UBT2); assay: SAR analysis of SUMOylation using HTRF in an in-Vitro dose response assay. [Related pubchem assays (depositor defined):AID2006, AID2011, AID2018, AID2069, AID2658]; type: functional
Genome polyprotein = Genome polyprotein (dengue virus type 2, UniProt P29990); assay: Dengue-2 NS5 methyltransferase inhibitors, primary screen, biochemical, confirmation dose response (AID 588689); type: functional
[10] = inhibitors of Trypanosoma cruzi host-cell infection, confirmation, beta-gal luminescence, NIH3T3 host cells (AID 2630); type: functional, cell-based; settings: Mus musculus
[11] = biological target: Lysine-specific demethylase 4C (Homo sapiens, UniProt Q9H3R0); assay: GASC-1 (JMJD2C) histone demethylase inhibitors, dose response, biochemical, DELFIA europium, cherry-picked samples (AID 488835); type: functional
[12] = biological target: Serine/threonine-protein phosphatase (Homo sapiens, UniProt Q9BPW0); assay: PP5 phosphatase inhibitors, dose response, biochemical, fluorescence (AID 2395)
[13] = biological target: Serine/threonine-protein phosphatase PP1-alpha catalytic subunit (Homo sapiens, UniProt P62136); assay: PP1 phosphatase inhibitors, dose response, biochemical, fluorescence (AID 2394)
[14] = AlphaScreen signal interference compounds, dose response, artefact control for ARNT-TACC3 interaction inhibitor project, biochemical, luminescence, cherry-pick (AID 651705); type: functional;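 note: AlphaScreen bead proximity signal that flags compounds interfering with the detection technology; potency reflects signal decrease which marks the compound as an assay artifact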
[15] = biological target: T6, Mannose-6-phosphate isomerase (Homo sapiens, UniProt P34949); assay: PMI enzyme inhibitors, confirmation, biochemical, fluorescence intensity (AID 1535)
T6 sequence (P34949 whole entry): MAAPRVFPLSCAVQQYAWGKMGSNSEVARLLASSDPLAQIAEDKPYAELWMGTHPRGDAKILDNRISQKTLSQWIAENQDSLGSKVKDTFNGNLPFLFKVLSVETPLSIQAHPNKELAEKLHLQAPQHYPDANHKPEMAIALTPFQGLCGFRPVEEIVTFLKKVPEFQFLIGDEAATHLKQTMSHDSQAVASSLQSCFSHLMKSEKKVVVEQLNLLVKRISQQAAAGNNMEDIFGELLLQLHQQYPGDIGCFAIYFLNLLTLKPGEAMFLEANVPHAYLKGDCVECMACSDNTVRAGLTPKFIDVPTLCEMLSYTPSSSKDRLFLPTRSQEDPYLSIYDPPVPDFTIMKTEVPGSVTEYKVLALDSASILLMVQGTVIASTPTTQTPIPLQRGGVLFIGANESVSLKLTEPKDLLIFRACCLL

[16] = SFLLRN-induced P-Selectin Platelet Surface Expression Measured in Cell-Based System Using Flow Cytometry - 2016-03_Inhibitor_Dose_DryPowder_Activity_Set3. [Related pubchem assays (depositor defined):AID1678]; type: functional
[17] = Luminescence Cell-Based Dose Response Follow up to Identify Inhibitors of Platelet Dense Granule Release. [Related pubchem assays (depositor defined):AID1663, AID1678, AID1889, AID2519]; type: functional
Beta-lactamase [18] = biological target: Beta-lactamase (Pseudomonas aeruginosa, UniProt Q79MP6);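 note: biochemical dose-response test of metallo-beta-lactamase enzyme inhibition, read out by epi-absorbance; purified recombinant IMP-1 metallo-beta-lactamase with nitrocefin as substrate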
Keap1/Nrf2 = Keap1/Nrf2 (Homo sapiens, UniProt Q14145); assay: Keap1-Nrf2 protein-protein interaction inhibitors, dose response, biochemical, fluorescence polarization, cherry-picked samples (AID 588683)
[19] = biological target: UDP-galactopyranose mutase (Mycobacterium tuberculosis, UniProt P9WIQ1); assay: Inhibitors of Mycobacterium tuberculosis UDP-galactopyranose mutase (UGM) enzyme Measured in Biochemical System Using Plate Reader - 2105-02_Inhibitor_Dose_CherryPick_Activity. [Related pubchem assays (depositor defined):AID504439]
Sequence of UDP-galactopyranose mutase (P9WIQ1 whole entry): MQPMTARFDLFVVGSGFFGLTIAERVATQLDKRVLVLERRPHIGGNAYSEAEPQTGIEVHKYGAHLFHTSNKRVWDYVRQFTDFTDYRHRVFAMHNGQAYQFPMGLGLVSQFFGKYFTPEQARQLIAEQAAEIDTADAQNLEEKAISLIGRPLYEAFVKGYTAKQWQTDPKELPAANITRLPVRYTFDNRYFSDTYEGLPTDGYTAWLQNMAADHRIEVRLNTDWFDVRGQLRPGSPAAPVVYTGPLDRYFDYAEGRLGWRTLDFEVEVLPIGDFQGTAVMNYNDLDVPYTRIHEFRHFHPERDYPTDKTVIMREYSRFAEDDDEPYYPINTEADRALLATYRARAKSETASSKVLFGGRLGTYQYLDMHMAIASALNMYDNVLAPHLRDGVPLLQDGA

Beta-lactamase [20] = biological target: Beta-lactamase (Salmonella choleraesuis (strain SC-B67), UniProt Q5J463)
Sequence of Beta-lactamase (Salmonella choleraesuis (strain SC-B67), UniProt Q5J463) (Q5J463 whole entry): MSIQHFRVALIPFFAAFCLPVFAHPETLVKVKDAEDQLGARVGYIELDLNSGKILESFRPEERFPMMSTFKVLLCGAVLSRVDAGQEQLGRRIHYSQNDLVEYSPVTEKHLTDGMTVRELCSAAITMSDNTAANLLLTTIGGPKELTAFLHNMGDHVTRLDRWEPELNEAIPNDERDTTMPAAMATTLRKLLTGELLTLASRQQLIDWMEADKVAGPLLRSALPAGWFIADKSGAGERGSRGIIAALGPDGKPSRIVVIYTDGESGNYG

[21] = growth induction of Burl-1 ts yeast mutant, dose response, counter-screen for SUMOylation pathway inhibitor project, whole organism, S. cerevisiae, luminescence (AID 463199); type: functional

## COc1ccc(-n2c(N)c(C(=O)NCc3ccco3)c3nc4ccccc4nc32)c(OC)c1
Trypsin
  AC50: 2.87 µM (active)
CAAX prenyl protease 2
  AC50: 2.3 µM (active)
CAAX prenyl protease 1
  AC50: 5.18 µM (active)

## O=C(O)c1ccc(NS(=O)(=O)c2ccc3c(c2)C2C=CCC2C(c2ccccc2F)N3)cc1 (stereo unspecified)
ORF 73
  AC50: 109 µM (active)
SUMO-activating enzyme [1]
  IC50: 19.5 µM (active)
[2]
  IC50: > 50 µM (not active)
[3]
  AC50: 10.2 µM (active)
[4]
  IC50: 10.1 µM (active)
[5]
  IC50: 19 µM (not active)
[6]
  IC50: > 50 µM (inactive)
SUMO-activating enzyme [7]
  IC50: 4.63 µM (active)
Caspase-6
  AC50: 13.7 µM (active)
Aminopeptidase N
  IC50: 2.75 µM (active)
[8]
  IC50: 2.58 µM (active)
[9]
  IC50: > 56.8 µM (not active)
SUMO E1/E2
  IC50: 35.3 µM (active)
Genome polyprotein
  IC50: 62.3 µM (active)

## Cn1cc(CN2CCCC(C(=O)c3ccc(C(C)(C)C)cc3)C2)cn1 (stereo unspecified)
[10]
  EC50: 1.25 µM (active)

## O=[N+]([O-])c1ccc(O)c(-c2nn[nH]n2)c1
[11]
  AC50: 4.74 µM (active)
[12]
  IC50: 44.5 µM (not active)
[13]
  IC50: > 67 µM (not active)
[14]
  AC50: 121 µM (active)

## O=c1c2ccccc2[nH]n1-c1ccccc1
[15]
  IC50: 44.9 µM (active)

## CC(=O)Nc1cccc(NC(=O)c2ccccc2Cl)c1
[16]
  AC50: 53.9 µM (active)
[17]
  EC50: 147 µM (active)

## Nc1cccc(N2C(=O)c3cccc4c(N)ccc(c34)C2=O)c1
Beta-lactamase [18]
  IC50: 31 µM (inactive)
ORF 73
  AC50: 6.98 µM (active)
Keap1/Nrf2
  AC50: 4.29 µM (active)
[19]
  AC50: 3.13 µM (active)
Beta-lactamase [20]
  IC50: 16.8 µM (inactive)

## CSc1ccc(Cl)c(C(=O)Nc2ccc(N3CCOCC3)cc2)c1
[21]
  AC50: 57.3 µM (active)
